Measured values reported in ChEMBL document CHEMBL3137667, “[Drug-induced liver injury; fourteenth updated edition of the bibliographic database of liver injuries and related drugs]” (Gastroenterol Clin Biol, 2004).

Legend:
[1] = human
[2] = human; remark: listed apart in the source
[3] = human; remark: listed apart in the source
[4] = human; remark: listed apart in the source
[5] = human; remark: listed apart in the source
[6] = human; remark: listed apart in the source
[7] = Proposed mechanism(s) of liver damage. [column 'MEC' in source]; details: human
[8] = Highest frequency of acute liver toxicity observed during clinical trials, expressed as a percentage. [column '% AIGUE' in source]; details: human
[9] = human; remark: listed apart in the source
[10] = human, serum
[11] = human; remark: listed apart in the source
[12] = human, serum, 4383 h
[13] = human; remark: listed apart in the source
[14] = human, serum; remark: listed apart in the source
[15] = Highest frequency of moderate liver toxicity observed during clinical trials, expressed as a percentage. [column '% BIOL' in source]; details: human
[16] = Times to onset, minimal and maximal, observed in the indexed observations. [column 'DELAI' in source]; details: human
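For Hepatotoxicity (association with vascular disease) in this document: count of indexed literature references reporting vascular liver injury in humans, e.g. peliosis hepatitis, hepatic veno-occlusive disease or Budd-Chiari syndrome.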
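For Hepatotoxicity (benign tumour) in this document: value is a count of indexed literature references citing a benign tumour confirmed by histopathology.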
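For Hepatotoxicity (choleostasis) in this document: human cholestatic liver injury, shown by histopathology or by peak ALT or AST elevation over alkaline phosphatase ratio below 2, value counts indexed literature reports.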
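For Hepatotoxicity (chronic liver disease) in this document: chronic liver injury confirmed by histopathology or persistently raised serum aminotransferase activity beyond 6 months, value given as the count of indexed literature references.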
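For Hepatotoxicity (cirrhosis) in this document: value is a count of indexed literature references reporting cirrhosis confirmed by histopathology.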
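For Hepatotoxicity (cytolytic) in this document: human cytolytic liver injury, shown by histopathology or by a ratio above 5 of peak ALT or AST elevation to alkaline phosphatase elevation, value counts indexed references.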
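For Hepatotoxicity (granulomatous hepatitis) in this document: value is a count of indexed literature references reporting granulomatous liver disease confirmed by histopathology.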
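For Hepatotoxicity (malignant tumour) in this document: malignant tumour confirmed by histopathology, value gives the count of indexed literature references reporting it.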
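For Hepatotoxicity (severe hepatitis) in this document: human clinical data: severe hepatitis, meaning potentially life-threatening liver failure or clinically observed cases, the value counts how many indexed literature references report it.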
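For Hepatotoxicity (steatosis) in this document: steatosis confirmed by histopathology, value is the count of indexed references.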

Row | Compound | Hepatotoxicity (association with vascular disease) [1] | Hepatotoxicity (choleostasis) [2] | Hepatotoxicity (steatosis) [3] | Hepatotoxicity (malignant tumour) [4] | Hepatotoxicity (benign tumour) [5] | Hepatotoxicity (cytolytic) [6] | Hepatotoxicity (mechanism) [7] | Hepatotoxicity (acute) [8] | Hepatotoxicity (severe hepatitis) [9] | Hepatotoxicity (acute) [10] | Hepatotoxicity (granulomatous hepatitis) [11] | Hepatotoxicity (chronic liver disease) [12] | Hepatotoxicity (cirrhosis) [13] | Hepatotoxicity (moderate) [14] | Hepatotoxicity (moderate) [15] | further results
1 | CN(Cc1cnc2nc(N)nc(N)c2n1)c1c(Cl)cc(C(=O)N[C@@H](CCC(=O)O)C(=O)O)cc1Cl | 0 | 0 | 0 | 0 | 0 | 0 | Dose-dependant | 0% | 0 | 0 | 0 | 0 | 0 | 2 | 16.7% | 
2 | O=C(NO)c1ccc(O)c(O)c1 | 0 | 0 | 0 | 0 | 0 | 0 | Dose-dependant | 0% | 0 | 1 | 0 | 0 | 0 | 1 | 0% | 
3 | COc1ccccc1Oc1c(NS(=O)(=O)c2ccc(C(C)(C)C)cc2)nc(-c2ncccn2)nc1OCCO [BOSENTAN] | 0 | 1 | 0 | 0 | 0 | 4 | Dose-dependant | 5.3% | 0 | 5 | 0 | 0 | 0 | 12 | 15% | 
4 | CCCCNC(=N)NC(=N)N [BUFORMIN] | 0 |  | 0 | 0 | 0 |  |  |  |  | 1 |  | 0 | 0 | 0 |  | Hepatotoxicity (choleostasis) ([2]; Liver): 0; Hepatotoxicity (cytolytic) ([6]; Liver): 0; Hepatotoxicity (mechanism) ([7]; Liver): Allergic; Hepatotoxicity (acute) ([8]; Liver): 0%; Hepatotoxicity (severe hepatitis) ([9]; Liver): 0; Hepatotoxicity (granulomatous hepatitis) ([11]; Liver): 0; Hepatotoxicity (moderate) ([15]; Liver): 0%
5 | CC(C)(O/N=C(\C(=O)N[C@@H]1C(=O)N2C(C(=O)[O-])=C(C[n+]3ccccc3)CS[C@H]12)c1csc(N)n1)C(=O)O [CEFTAZIDIME] | 0 | 2 | 0 | 0 | 0 | 0 | Dose-dependant | 2.5% | 0 | 2 | 0 | 0 | 0 | 77 | 35.7% | 
6 | COc1nc(C)ccc1CN1CC1C#N (stereo not given) [CIAMEXON] | 0 | 0 | 0 | 0 | 0 | 0 | Dose-dependant | 0% | 0 | 0 | 0 | 0 | 0 | 2 | 14% | 
7 | CCN(CC)CC[n+]1ccc2c(C)c3[nH]c4ccc(O)cc4c3c(C)c2c1.[Cl-] [DATELLIPTIUM CHLORIDE] | 0 | 0 | 0 | 0 | 0 | 2 | Dose-dependant | 7.1% | 0 | 2 | 0 | 0 | 0 | 2 | 66.7% | 
8 | O=C[C@H](O)[C@@H](O)[C@H](O)[C@H](O)CO[C@H]1O[C@H](CO[C@H]2O[C@H](CO)[C@@H](O)[C@H](O)[C@H]2O)[C@@H](O)[C@H](O)[C@H]1O [DEXTRAN] | 0 | 0 | 0 | 0 | 0 | 0 | Dose-dependant | 0% | 0 | 0 | 0 | 0 | 0 | 2 | 43.7% | 
9 | CO[C@@H]1[C@@H](N)[C@@H](O[C@H]2[C@H](Oc3cccc4c(O)c5c(=O)oc6ccc(C)c7c(=O)oc(c34)c5c67)O[C@H](C)[C@H](O)[C@]2(C)O)O[C@H](C)[C@@H]1O [ELSAMITRUCIN] | 0 | 0 | 0 | 0 | 0 | 0 | Dose-dependant | 1.6% | 1 | 2 | 0 | 0 | 0 | 4 | 13% | 
10 | C[C@@](O)(/C=C/[C@H]1CC=CC(=O)O1)[C@@H](C[C@@H](O)\C=C/C=C\C=C\CO)OP(=O)(O)O [FOSTRIECIN] | 0 | 0 | 0 | 0 | 0 | 0 | Dose-dependant | 0% | 0 | 0 | 0 | 0 | 0 | 1 | 5% | 
11 | CCCCCCCCCCCCCCCCSCC(COC)COP(=O)([O-])OCC[N+](C)(C)C (stereo not given) [ILMOFOSINE] | 0 | 0 | 0 | 0 | 0 | 0 | Dose-dependant | 0% | 0 | 0 | 0 | 0 | 0 | 5 | 71.4% | 
12 | Cc1cnc(NC(=O)C2=C(O)c3ccccc3S(=O)(=O)N2C)s1 [MELOXICAM] | 0 | 0 | 0 | 0 | 0 | 0 | Dose-dependant |  |  | 1 | 0 | 0 | 0 | 6 |  | Hepatotoxicity (acute) ([8]; Liver): 0%; Hepatotoxicity (severe hepatitis) ([9]; Liver): 0; Hepatotoxicity (moderate) ([15]; Liver): 11.5%
13 | UROKINASE | 0 | 0 | 0 | 0 | 0 | 1 |  | 0% | 0 | 1 | 0 | 0 | 0 | 0 | 0% | Hepatotoxicity (time to onset) [16]: 2 days
14 | [3-(8,8-Diethyl-2-aza-8-germa-spiro[4.5]dec-2-yl)-propyl]-dimethyl-amine | 0 | 0 | 0 | 0 | 0 | 0 |  | 6.5% | 0 | 2 | 0 | 0 | 0 | 6 | 27% | Hepatotoxicity (time to onset) [16]: 8 weeks
